Measurements reported in PMC12362587, “Untargeted Diversity-Oriented Synthesis for the Discovery of New Antitumor Agents: An Integrated Approach of Inverse Virtual Screening, Bioinformatics, and Omics for Target Deconvolution” (Journal of Medicinal Chemistry, 2025).

Experiments:
[1] = MTT cell viability assay; type: cell-based, human; settings: human, HaCaT keratinocyte cells (healthy control line), 24 h, compounds 0.01–40 μM, healthy control line, read-out: In Vitro Cytotoxicity, EC50 ± SD, HaCaT
Source text: (§1) Initially, we phenotypically screened the synthesized compounds over a panel of tumor cell lines composed of HEPG2, A375, SHSY5Y, MCF7, and A549 derived from liver tumor, melanoma, neuroblastoma, breast cancer, and lung adenocarcinoma, respectively. We also considered the HaCaT cell line, coming from keratinocytes, as a healthy control line. As reference, cytotoxic chemotherapeutic agent 5-fluorouracil (5-FU) has been used. The results obtained performing the MTT (3-(4,5-dimethylthiazolyl-2)-2,5-diphenyltetrazolium bromide) assay are summarized in Table .
(§2) The human neuroblastoma SHSY5Y, melanoma A375, human breast cancer MCF7, nonsmall lung cancer A549, and human epidermal keratinocyte HaCaT cell lines were obtained from ATCC and were grown in Dulbecco’s Modified Eagle Medium (DMEM) supplemented with 10% (v/v) FBS, 2 mM L-glutamine, 100 U/mL penicillin, and 0.1 mg/mL streptomycin.
(§3) Cell viability was established by measuring mitochondrial metabolic activity with MTT. In brief, HEPG2 (1 × 10^4 cells/well), A375 (2 × 10^3 cells/well), HaCaT (3 × 10^3 cells/well), A549 (3 × 10^3 cells/well), SHSY5Y (2 × 10^4 cells/well), and MCF 7 (5 × 10^3 cells/well) were plated into 96-well plates for 24 h, then the compounds (0.01–40 μM) were added. After 24h, cells were replaced with a fresh medium containing 0.5 mg/mL MTT. Cells were incubated 1–3 h at 37 °C, then the medium was discarded, and formazan blue crystals in the cells were dissolved in 100 μL per well of a solution containing isopropanol/HCl 0.1 M. The absorbance was measured at 570 nm using a microplate reader (Multiskan Go, Thermo Scientific, Waltham, MA, USA). Cell viability was expressed as a percentage relative to the untreated cells cultured in medium with 0.1% DMSO and set to 100%, whereas 10% DMSO was used as positive control and set to 0% of viability. The EC50 values were calculated using GraphPad Prism 8.0 software by nonlinear regression of dose–response inhibition.

[2] = system: HEPG2; test: MTT cell viability assay; type: cell-based; settings: Homo sapiens, 24 h, compounds 0.01–40 μM, read-out: In Vitro Cytotoxicity, EC50 ± SD, HEPG2
Source text: as §1
The human hepatoma HEPG2 cell line was obtained from American Type Culture Collection (ATCC, Rockville, MD, USA). Cells were grown in Eagle’s Minimum Essential Medium (EMEM) supplemented with 10% (v/v) fetal bovine serum (FBS), 2 mM L-glutamine, 1% (v/v) nonessential amino acids, 100 U/mL penicillin, and 0.1 mg/mL streptomycin.
as §3

[3] = system: A375; test: MTT cell viability assay; type: cell-based; settings: Homo sapiens, A-375, 24 h, compounds 0.01–40 μM, read-out: In Vitro Cytotoxicity, EC50 ± SD, A375
Source text: as §1, §2, §3

[4] = system: A549; test: MTT cell viability assay; type: cell-based; settings: Homo sapiens, 24 h, compounds 0.01–40 μM, read-out: In Vitro Cytotoxicity, EC50 ± SD, A549
Source text: as §1, §2, §3

[5] = system: MCF7; test: MTT cell viability assay; type: cell-based; settings: Homo sapiens, 24 h, compounds 0.01–40 μM, read-out: In Vitro Cytotoxicity, EC50 ± SD, MCF7
Source text: as §1, §2, §3

[6] = system: SHSY5Y; test: MTT cell viability assay; type: cell-based; settings: Homo sapiens, SH-SY5Y, 24 h, compounds 0.01–40 μM, read-out: In Vitro Cytotoxicity, EC50 ± SD, SHSY5Y
Source text: as §1, §2, §3

[7] = system: HaCaT; test: MTT cell viability assay; type: cell-based, human; settings: in words
Source text: as §1, §2, §3

[8] = system: cancer cell lines (HEPG2, A375, SHSY5Y, MCF7, A549); test: MTT cytotoxicity screen over panel of tumor cell lines; type: cell-based, human; settings: in words
Source text: as §1, §3

Row | SMILES | EC50 at 24 h [1] | EC50 [2] | EC50 [3] | EC50 [4] | EC50 [5] | EC50 [6] | cytotoxicity effect over the HaCaT cell lines [7] | selectivity, tumor cell lines versus healthy line [8] | cytotoxic activity over the cancer cell lines [8]
1 | O=c1[nH]cc(F)c(=O)[nH]1 [Compound 5-FU, 5-fluorouracil, reference compound] | 0.481 ± 0.059 µM | 0.056 ± 0.021 µM | 0.032 ± 0.011 µM | 0.047 ± 0.02 µM | 0.023 ± 0.009 µM | 0.072 ± 0.026 µM | – | – | –
2 | CC(C)C[C@@H](C(=O)NCc1ccccc1)N1Cc2ccccc2OC1=O [Compound 7, (S)-N-Benzyl-4-methyl-2-(2-oxo-2H-benzo[e][1,3]oxazin-3(4H)-yl)pentanamide] | 38.4 ± 4.54 µM | 35.6 ± 3.22 µM | 13.7 ± 1.4 µM | > 40 µM | 20.2 ± 3.57 µM | 11.5 ± 2.05 µM | exhibited cytotoxicity effect | – | –
3 | CC(C)(C)CNC(=O)[C@H](Cc1ccccc1)N1Cc2ccccc2OC1=O [Compound 8, (S)-N-Neopentyl-2-(2-oxo-2H-benzo[e][1,3]oxazin-3(4H)-yl)-3-phenylpropanamide] | 34.8 ± 3.79 µM | 21.4 ± 4.94 µM | 17.5 ± 3.22 µM | 15 ± 2.84 µM | 13.8 ± 2.28 µM | > 40 µM | exhibited cytotoxicity effect | – | –
4 | CC(C)COC(=O)[C@H](Cc1ccccc1)n1c(=O)[nH]c2ccccc2c1=O [Compound 22, Isobutyl (S)-2-(2,4-Dioxo-1,4-dihydroquinazolin-3(2H)-yl)-3-phenylpropanoate] | 27 ± 4.09 µM | 4.28 ± 2.04 µM | 7.12 ± 2.54 µM | 36.3 ± 5.72 µM | 11.2 ± 3.14 µM | 30.4 ± 3.92 µM | – | – | –
5 | CC(C)C[C@@H](C(=O)OCc1ccccc1)n1c(=O)[nH]c2ccccc2c1=O [Compound 23, Benzyl (S)-2-(2,4-Dioxo-1,4-dihydroquinazolin-3(2H)-yl)-4-methylpentanoate] | 10.2 ± 1.84 µM | 1.7 ± 1.05 µM | 3.88 ± 1.64 µM | 4.12 ± 1.89 µM | 12.2 ± 2.64 µM | 3.5 ± 1.41 µM | – | lack of selectivity | –
6 | O=C1N[C@@H](Cc2ccccc2)C(=O)N(Cc2ccc(C(F)(F)F)cc2)c2ccccc21 [Compound 28, (S)-3-Benzyl-1-(4-(trifluoromethyl)benzyl)-3,4-dihydro-1H-benzo[e][1,4]diazepine-2,5-dione] | 26.9 ± 4.4 µM | 11.1 ± 2.25 µM | 13 ± 2.1 µM | 8.8 ± 1.37 µM | 11.7 ± 3.12 µM | 10.7 ± 1.26 µM | – | lack of selectivity | –
7 | CC(C)C[C@@H]1NC(=O)c2ccccc2N(Cc2ccc(C(F)(F)F)cc2)C1=O [Compound 29, (S)-3-Isobutyl-1-(4-(trifluoromethyl)benzyl)-3,4-dihydro-1H-benzo[e][1,4]diazepine-2,5-dione] | > 40 µM | 25.8 ± 2.74 µM | 29.4 ± 4.43 µM | > 40 µM | > 40 µM | > 40 µM | – | – | –
8 | O=C1[C@H](Cc2ccccc2)N(Cc2ccc(C(F)(F)F)cc2)C(=O)c2ccccc2N1Cc1ccc(C(F)(F)F)cc1 [Compound 30, (S)-3-Benzyl-1,4-bis(4-(trifluoromethyl)benzyl)-3,4-dihydro-1H-benzo[e][1,4]diazepine-2,5-dione] | > 40 µM | 5.06 ± 1.73 µM | 7.44 ± 2.12 µM | > 40 µM | 13.8 ± 3.11 µM | 37.3 ± 4.45 µM | – | – | –
9 | CC(C)C[C@H]1CNc2ccccc2C(=O)N1Cc1ccc(C(F)(F)F)cc1 [Compound 33, (S)-3-Isobutyl-4-(4-(trifluoromethyl)benzyl)-1,2,3,4-tetrahydro-5H-benzo[e][1,4]diazepin-5-one] | 9.62 ± 1.12 µM | 2.69 ± 0.85 µM | 2.51 ± 1.02 µM | 10.4 ± 1.01 µM | 13.9 ± 2.78 µM | 13.5 ± 2.22 µM | – | lack of selectivity | –
10 | CC(C)C[C@H]1CN(Cc2ccc(C(F)(F)F)cc2)c2ccccc2C(=O)N1Cc1ccc(C(F)(F)F)cc1 [Compound 34, (S)-3-Isobutyl-1,4-bis(4-(trifluoromethyl)benzyl)-1,2,3,4-tetrahydro-5H-benzo[e][1,4]diazepin-5-one] | > 40 µM | 11.5 ± 2.16 µM | 5.14 ± 2.15 µM | 17.6 ± 3.65 µM | > 40 µM | > 40 µM | – | – | –
11 | CC(C)CN1Cc2ccccc2NC[C@@H]1Cc1ccccc1 [Compound 37, (S)-3-Benzyl-4-isobutyl-2,3,4,5-tetrahydro-1H-benzo[e][1,4]diazepine] | > 40 µM | > 40 µM | 8.92 ± 2.72 µM | > 40 µM | > 40 µM | > 40 µM | – | – | –
12 | CC(C)C[C@H]1CN(Cc2ccc(C(F)(F)F)cc2)c2ccccc2CN1Cc1ccc(C(F)(F)F)cc1 [Compound 38, (S)-3-Isobutyl-1,4-bis(4-(trifluoromethyl)benzyl)-2,3,4,5-tetrahydro-1H-benzo[e][1,4]diazepine] | > 40 µM | 15.4 ± 1.71 µM | 23.1 ± 3.1 µM | 37.9 ± 1.64 µM | > 40 µM | > 40 µM | – | – | –
13 | CC(C)C[C@@H]1NC(=O)[C@H](Cc2ccccc2)N(Cc2ccccc2)C1=O [Compound 41, (3S,6S)-1,6-Dibenzyl-3-isobutylpiperazine-2,5-dione] | > 40 µM | > 40 µM | > 40 µM | > 40 µM | > 40 µM | > 40 µM | – | – | no activity
14 | CC(C)CN1c2ccccc2NC(=O)[C@@H]1Cc1ccccc1 [Compound 48, (S)-3-Benzyl-4-isobutyl-3,4-dihydroquinoxalin-2(1H)-one] | > 40 µM | > 40 µM | > 40 µM | 35.5 ± 5.48 µM | > 40 µM | > 40 µM | – | – | no activity
15 | CC(C)C[C@H]1C(=O)Nc2ccccc2N1Cc1ccccc1 [Compound 49, (S)-4-Benzyl-3-isobutyl-3,4-dihydroquinoxalin-2(1H)-one] | > 40 µM | > 40 µM | > 40 µM | > 40 µM | > 40 µM | > 40 µM | – | – | no activity
16 | CC(C)C[C@@H]1NC(=O)OCc2ccccc2NC1=O [Compound 52, (S)-3-Isobutyl-1,3,4,7-tetrahydrobenzo[g][1,3,6]oxadiazonine-2,5-dione] | > 40 µM | > 40 µM | > 40 µM | > 40 µM | > 40 µM | > 40 µM | – | – | no activity
17 | CC(C)COC(=O)[C@H](Cc1ccccc1)N1Cc2ccccc2NC1=O [Compound 64, Isobutyl (S)-2-(2-Oxo-1,4-dihydroquinazolin-3(2H)-yl)-3-phenylpropanoate] | 24.4 ± 4.51 µM | 7.97 ± 2.45 µM | 8.64 ± 1.66 µM | 32.3 ± 5.76 µM | 9.55 ± 1.05 µM | 28.2 ± 3.2 µM | – | lack of selectivity | –
